In patent publication US10494376B2, “Tetrahydroisoquinoline derived PRMT5-inhibitors” (CTXT PTY LTD, priority 2014, dated 2019):
Counter-ions that a name gives are not always drawn. Like-named read-outs stand apart in the source and are kept apart here.

Tests used:
[1] = target: T1, Full-length PRMT5 enzyme (NCBI Reference sequence NP_006100.2) co-expressed with His6-MEP50 (Homo sapiens (Human), UniProt O14744); assay: PRMT5 Biochemical Assay; conditions: 200 nM peptide substrate, 1 μM S-Adenosyl methionine, 4 hours at 37° C., Transcreener EPIGEN fluorescence polarisation
Description: Compounds of the invention may be tested for in vitro activity in the following assay: A histone H4 derived peptide is used as substrate (amino acid sequence: […]N H2). Full-length PRMT5 enzyme (NCBI Reference sequence NP_006100.2) was co-expressed with His6-MEP50 in insect cells and purified via Nickel immobilized metal affinity and gel filtration chromatography (“the enzyme”).
The 6 μL assay reactions are run in Greiner brand black 384-well low volume plates. All reactions contained assay buffer (phosphate buffered saline, 0.01% (v/v) Tween-20, 0.01% (w/v) albumin from chicken egg white, 1 mM dithiothreitol, 200 nM peptide substrate, 1 μM S-Adenosyl methionine, and 15 ng/reaction enzyme, with the enzyme being omitted from negative control reactions. Compounds were added in a volume of 100 nL from dilution series prepared in DMSO, positive and negative control reactions receiving the same volume DMSO without compound. The plates were sealed with adhesive seals and incubated for 4 hours at 37° C. Reaction progress was measured using the Transcreener™ EPIGEN methyltransferase assay (BellBrook Labs, Madison, Wis.) as recommended by the manufacturer. To each reaction 2 μL detection mix were added, containing coupling enzymes, fluorescence polarisation tracer, and AMP antibody. Plates were incubated for 90 min before being read on a PerkinElmer EnVision™ plate reader in fluorescence polarisation mode. IC50 values were obtained from the raw readings by calculating percent inhibition (%1) for each reaction relative to controls on the same plate (% I=(I−CN)/(CP−CN) where CN/CP are the averages of the negative/positive reactions, respectively), then fitting the % I data vs. compound concentration [I] to % I=(A+((B−A)/(1+((C/[I])^D)))) where A is the lower asymptote, B is the upper asymptote, C is the IC50 value, and D is the slope.

[2] = tested on: symmetrical dimethylation of arginine (Di-Methyl Histone H4R3) in cell line TE11; assay: PRMT5 Biomarker Assay (symmetrical dimethylation of arginine, Di-Methyl Histone H4R3 ELISA); format: cell-based; conditions: Homo sapiens, TE-11; TE11 cells, 72 h incubation, EpiQuik ELISA, corrected for total protein
Description: (§1) Compounds of the invention may be tested for potency to inhibit symmetrical dimethylation of arginine in the following assay:
The cell line TE11 was seeded at a density of 12,000 cells per well in 96 well tissue culture plates in DME medium and 10% foetal bovine serum, and allowed to adhere overnight under standard culture conditions (37° C., 5% CO2). Compound dilutions prepared in DMSO were added to the medium, with negative control wells reserved for treatment with DMSO only and positive controls receiving a potent PRMT5 inhibitor. The concentration of the inhibitor had been previously determined to give maximum inhibition of the methylation. After incubation for 72 h, cells were washed twice in ice-cold PBS, lysed in lysis buffer (20 mM Tris pH 7.4, 135 mM NaCl, 1.5 mM MgCl2, 1 mM EGTA, 10% glycerol and 1% Triton-X100), centrifuged at 15,000×g and the supernatants collected for subsequent analysis. The methylation level was determined using the EpiQuik™ Global Di-Methyl Histone H4R^3 Quantification ELISA Kit (Epigentek, Farmingdale, N.Y.) as per the manufacturer's recommendations; in parallel the total protein amount in the lysate was quantified using a Lowry protein assay. […]

[3] = target: T1, Full-length PRMT5 enzyme (NCBI Reference sequence NP_006100.2) co-expressed with His6-MEP50; assay: Revised PRMT5 Biochemical Assay; conditions: 1 μM peptide substrate, 1 μM S-Adenosyl methionine, 4 hours at 37 degree Celsius, Transcreener EPIGEN fluorescence polarisation
Procedure, shortened: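 Full-length PRMT5 co-expressed with His6-MEP50 in insect cells (15 ng/reaction) was run with 1 μM H4-derived peptide and 1 μM SAM in PBS, 0.01% Tween-20, 0.01% albumin and 1 mM DTT for 4 h at 37 °C. Product was read by Transcreener EPIGEN fluorescence polarisation, and IC50 came from a 4-parameter fit.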

[4] = tested on: symmetrical dimethylation of arginine (Di-Methyl Histone H4 Arginine 3) in cell line TE11; assay: Revised PRMT5 Biomarker Assay (Di-Methyl Histone H4 Arginine 3 immunofluorescence); format: cell-based; conditions: Homo sapiens, TE-11, TE11 cells, 72 hours
Description: as §1
The cell line TE11 was seeded at a density of 6,000 cells per well in 96 well optical quality tissue culture plates in DME medium and 10% foetal bovine serum, and allowed to adhere for 5 hours under standard culture conditions (37 degree Celsius, 5% CO2). […] After incubation for 72 hours, the cells were fixed with 3.7% formaldehyde in PBS for 30 minutes at room temperature, washed with phosphate buffer saline and blocked with Odyssey blocking buffer (LI-COR, Lincoln, Nebr.). Rabbit anti-Di-Methyl Histone H4 Arginine 3 specific antibody (Epigentek) in Odyssey blocking buffer was added and incubated for 14 hours at 4 degree Celsius. […] Alternatively, the plates were imaged on a PerkinElmer Phenix high content imaging platform. […] The resulting mean intensity per cell was directly converted to percent inhibition as outlined above (IC50, imager based).

T1 sequence (O14744 whole entry): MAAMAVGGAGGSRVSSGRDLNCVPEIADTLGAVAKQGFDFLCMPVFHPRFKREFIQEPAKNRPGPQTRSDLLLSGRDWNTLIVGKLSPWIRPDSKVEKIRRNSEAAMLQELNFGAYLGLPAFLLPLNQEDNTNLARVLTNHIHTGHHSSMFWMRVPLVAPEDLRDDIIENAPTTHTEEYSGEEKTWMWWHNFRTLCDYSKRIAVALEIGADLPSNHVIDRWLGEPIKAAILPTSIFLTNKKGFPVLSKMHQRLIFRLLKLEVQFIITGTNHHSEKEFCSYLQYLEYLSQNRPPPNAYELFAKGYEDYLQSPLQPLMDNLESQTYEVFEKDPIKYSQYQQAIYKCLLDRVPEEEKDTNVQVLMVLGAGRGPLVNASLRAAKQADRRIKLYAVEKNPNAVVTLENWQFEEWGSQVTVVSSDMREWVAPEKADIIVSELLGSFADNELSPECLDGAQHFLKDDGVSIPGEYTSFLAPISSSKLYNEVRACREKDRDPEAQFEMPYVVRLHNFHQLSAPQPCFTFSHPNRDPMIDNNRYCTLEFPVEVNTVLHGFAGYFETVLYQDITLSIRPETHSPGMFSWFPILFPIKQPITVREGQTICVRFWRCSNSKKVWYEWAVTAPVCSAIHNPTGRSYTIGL
T1 sequence (Q9BQA1 whole entry partner): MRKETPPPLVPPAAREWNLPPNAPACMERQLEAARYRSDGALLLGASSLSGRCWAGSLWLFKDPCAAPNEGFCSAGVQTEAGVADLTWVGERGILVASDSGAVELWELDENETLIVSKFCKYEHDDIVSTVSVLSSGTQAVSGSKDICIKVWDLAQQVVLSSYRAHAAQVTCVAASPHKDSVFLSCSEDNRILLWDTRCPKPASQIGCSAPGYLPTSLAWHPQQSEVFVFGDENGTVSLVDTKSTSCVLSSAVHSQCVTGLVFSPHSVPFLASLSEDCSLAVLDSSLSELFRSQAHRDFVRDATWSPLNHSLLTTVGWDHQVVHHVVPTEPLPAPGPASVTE

| SMILES | IC50 [1] [µM] | IC50 [2] [nM] | IC50 [3] [nM] | IC50 ([4]; PerkinElmer Phenix high content imaging, mean intensity per cell, read-out: IC50 - image based) [nM] | IC50 ([4]; PerkinElmer Envision fluorescence intensity, corrected for Hoechst 33342, read-out: IC50 - plate-reader based) [nM] |
| --- | --- | --- | --- | --- | --- |
| O=C(NCC(O)CC1Cc2ccccc2CN1)c1ccc(C(=O)N2CCOCC2)cc1 (stereo not shown) [Example 1, N-(2-Hydroxy-3-(1,2,3,4-tetrahydroisoquinolin-3-yl)propyl)-4-(morpholine-4-carbonyl)benzamide] | 4.69 | 956 | – | – | – |
| O=C(NCC(O)C1Cc2ccccc2CN1)c1ccc(C(=O)N2CCOCC2)cc1 (stereo not shown) [Example 2, N-(2-hydroxy-2-(1,2,3,4-tetrahydroisoquinolin-3-yl)ethyl)-4-(morpholine-4-carbonyl)benzamide] | 0.763 | 7.2 | – | – | – |
| O=C(NC[C@H](O)[C@H]1Cc2ccccc2CN1)c1ccc(C(=O)N2CCOCC2)cc1 [Example 53, N—((S)-2-hydroxy-2-((R)-1,2,3,4-tetrahydroisoquinolin-3-yl)ethyl)-4-(morpholine-4-carbonyl)benzamide hydrochloride] | 22 | – | 21200 | – | – |
| O=C(NC[C@@H](O)[C@@H]1Cc2ccccc2CN1)c1ccc(C(=O)N2C3CCC2COC3)cc1C(F)F [Example 106, 4-(3-Oxa-8-azabicyclo[3.2.1]octane-8-carbonyl)-2-(difluoromethyl)-N—((R)-2-hydroxy-2-((S)-1,2,3,4-tetrahydroisoquinolin-3-yl)ethyl)benzamide] | – | – | 212 | 5 | – |
| CCOc1cc(C(=O)N2C3CCC2COC3)ccc1C(=O)NC[C@@H](O)[C@@H]1Cc2ccc(C)cc2CN1 [Example 108, 4-(3-Oxa-8-azabicyclo[3.2.1]octane-8-carbonyl)-2-ethoxy-N—((R)-2-hydroxy-2-((S)-7-methyl-1,2,3,4-tetrahydroisoquinolin-3-yl)ethyl)benzamide] | – | – | 17 | – | 1 |
